Results reported in patent publication US20240299352A1, “COMBINATION THERAPIES WITH SETD2 INHIBITORS” (Epizyme, Inc., priority 2021, published 2024).

Legend:
DB = assay: Co-treatment combination study with Cpd. No. 15, CellTiter-Glo viability, Loewe Volume; format: cell-based; conditions: in combination with Cpd. No. 15, seven days, DLBCL cell line DB
In short: (§1)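 Viability after combined dosing was assessed through ATP content by CellTiter-Glo following a 7-day co-incubation of MCL or DLBCL cells with both compounds.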

DOHH2 = assay: as above; format: cell-based; conditions: in combination with Cpd. No. 15, seven days, DLBCL cell line DOHH2
In short: as §1

GRANTA519 = assay: as above; format: cell-based; conditions: in combination with Cpd. No. 15, seven days, mantle cell lymphoma cell line GRANTA519 (ACC 342)
In short: as §1

HT = assay: as above; format: cell-based; conditions: in combination with Cpd. No. 15, seven days, DLBCL cell line HT
In short: as §1

JEKO1 = assay: as above; format: cell-based; conditions: in combination with Cpd. No. 15, seven days, mantle cell lymphoma cell line JEKO1 (CRL-3006)
In short: as §1

JVM2 = assay: as above; format: cell-based; conditions: in combination with Cpd. No. 15, seven days, mantle cell lymphoma cell line JVM2 (CRL-3002)
In short: as §1

KARPAS422 = assay: as above; format: cell-based; conditions: in combination with Cpd. No. 15, seven days, DLBCL cell line KARPAS422
In short: as §1

MAVER1 = assay: as above; format: cell-based; conditions: in combination with Cpd. No. 15, seven days, mantle cell lymphoma cell line MAVER1 (CRL-3008)
In short: as §1

MINO = assay: as above; format: cell-based; conditions: in combination with Cpd. No. 15, seven days, mantle cell lymphoma cell line MINO (CRL-3000)
In short: as §1

Pfeiffer = assay: as above; format: cell-based; conditions: in combination with Cpd. No. 15, seven days, DLBCL cell line Pfeiffer
In short: as §1

REC1 = assay: as above; format: cell-based; conditions: in combination with Cpd. No. 15, seven days, mantle cell lymphoma cell line REC1 (CRL-3004)
In short: as §1

RL = assay: as above; format: cell-based; conditions: in combination with Cpd. No. 15; 6-Day Cotreatment; DLBCL cell line RL
SUDHL10 = assay: as above; format: cell-based; conditions: in combination with Cpd. No. 15; 5-Day Cotreatment; DLBCL cell line SUDHL10
SUDHL2 = assay: as above; format: cell-based; conditions: in combination with Cpd. No. 15, seven days, DLBCL cell line SUDHL2
In short: as §1

SUDHL4 = assay: as above; format: cell-based; conditions: in combination with Cpd. No. 15, seven days, DLBCL cell line SUDHL4
In short: as §1

SUDHL5 = assay: as above; format: cell-based; conditions: in combination with Cpd. No. 15, seven days, DLBCL cell line SUDHL5
In short: as §1

SUDHL6 = assay: as above; format: cell-based; conditions: in combination with Cpd. No. 15, seven days, DLBCL cell line SUDHL6
In short: as §1

SUDHL8 = assay: as above; format: cell-based; conditions: in combination with Cpd. No. 15, seven days, DLBCL cell line SUDHL8
In short: as §1

TOLEDO = assay: as above; format: cell-based; conditions: in combination with Cpd. No. 15, seven days, DLBCL cell line TOLEDO
In short: as §1

WILL2 = assay: as above; format: cell-based; conditions: in combination with Cpd. No. 15, seven days, DLBCL cell line WILL2
In short: as §1

WSUDLCL2 = assay: as above; format: cell-based; conditions: in combination with Cpd. No. 15, seven days, DLBCL cell line WSUDLCL2
In short: as §1

WSUNHL = assay: as above; format: cell-based; conditions: in combination with Cpd. No. 15, seven days, DLBCL cell line WSUNHL
In short: as §1

Z138 = assay: as above; format: cell-based; conditions: in combination with Cpd. No. 15, seven days, mantle cell lymphoma cell line Z138 (CRL-3001)
In short: as §1

[1] = system: diffuse large B-cell lymphoma (DLBCL) cell lines; assay: Co-treatment combination study with Cpd. No. 15, further cell lines (Table F), CellTiter-Glo viability, Loewe Volume; format: cell-based; conditions: for Combination effect with Cpd. No. 15 (Loewe Volume class), Ri1: co-treatment with Cpd. No. 15, cell line Ri1 (Cat. No. 96090512-1VL); for Combination effect with Cpd. No. 15 (Loewe Volume class), TMD8: co-treatment with Cpd. No. 15, cell line TMD8 (Cat. No. M-097); for Combination effect with Cpd. No. 15 (Loewe Volume class), WILL1: co-treatment with Cpd. No. 15, cell line WILL1 (Cat. No. ACC 651)
Method: Mantle cell lymphoma (MCL) and diffuse large B-cell lymphoma (DLBCL) cell line cultures in log-linear growth rate were treated with combinations of Cpd. No. 15 and combination partners according to a co-treatment model. […] No. 15 and the combination partner. […] Each combination was tested in quadruplicate wells. The final concentration of DMSO (vehicle) in the assay was 0.1% v/v. Fifty microliters of cell line suspension were directly dispensed to the assay-ready plates with an automated multichannel dispenser on to 384-well assay-ready plates. Assay plates were incubated for seven days unless otherwise indicated in a humidified atmosphere of 5% CO2 at 37° C. Quantification of the effect of single agents or combinations on cell viability was performed through measurement of cellular adenosine triphosphate (ATP) using a CellTiter-Glo® (Promega, Madison, WI) Luminescent Cell Viability Assay. Luminescence was detected using a SpectraMax M5 microplate reader (Molecular Devices, Sunnyvale, CA). Concentration response plots were generated in GraphPad Prism version 7.0 for Windows, GraphPad Software, (La Jolla, California) and curves fitted to a four-parameter logistic model with variable slope. Percent of inhibition was calculated at each treatment concentration.

[2] = system: diffuse large B-cell lymphoma (DLBCL) cell lines; assay: Pre-treatment model combination study with Cpd. No. 15 (7 days pre-treatment, then combination; Table G), CellTiter-Glo viability, Loewe Volume; conditions: 7 days pre-treatment with Cpd. No. 15, then combination; for Combination effect with Cpd. No. 15 (Loewe Volume class), Farage: cell line Farage (Cat. No. CRL-2630); for Combination effect with Cpd. No. 15 (Loewe Volume class), HT: cell line HT (Cat. No. CRL-2631); for Combination effect with Cpd. No. 15 (Loewe Volume class), OCILY7: cell line OCILY7 (Cat. No. ACC 688); for Combination effect with Cpd. No. 15 (Loewe Volume class), SUDHL4: cell line SUDHL4 (Cat. No. ACC 495)

| SMILES | Combination effect (Loewe Volume) DB (DB) | Combination effect (Loewe Volume) DOHH2 (DOHH2) | Combination effect (Loewe Volume) GRANTA519 (GRANTA519) | Combination effect (Loewe Volume) HT (HT) | Combination effect (Loewe Volume) JEKO1 (JEKO1) | Combination effect (Loewe Volume) JVM2 (JVM2) | Combination effect (Loewe Volume) KARPAS422 (KARPAS422) | Combination effect (Loewe Volume) MAVER1 (MAVER1) | Combination effect (Loewe Volume) MINO (MINO) | Combination effect (Loewe Volume) Pfeiffer (Pfeiffer) | Combination effect (Loewe Volume) REC1 (REC1) | Combination effect (Loewe Volume) RL (RL) | Combination effect (Loewe Volume) SUDHL10 (SUDHL10) | Combination effect (Loewe Volume) SUDHL2 (SUDHL2) | Combination effect (Loewe Volume) SUDHL4 (SUDHL4) | Combination effect (Loewe Volume) SUDHL5 (SUDHL5) | Combination effect (Loewe Volume) SUDHL6 (SUDHL6) | Combination effect (Loewe Volume) SUDHL8 (SUDHL8) | Combination effect (Loewe Volume) TOLEDO (TOLEDO) | Combination effect (Loewe Volume) WILL2 (WILL2) | further results |
| --- | --- | --- | --- | --- | --- | --- | --- | --- | --- | --- | --- | --- | --- | --- | --- | --- | --- | --- | --- | --- | --- |
| CC#CC(=O)N1CCC[C@H]1c1nc(-c2ccc(C(=O)Nc3ccccn3)cc2)c2c(N)nccn12 [Acalabrutinib, acalabrutinib] | No Effect | No Effect | Additivity (between 1 and −1: additivity) | No Effect | Synergy (VLoewe>1: synergy) | Additivity (between 1 and −1: additivity) | No Effect | Synergy (VLoewe>1: synergy) | Synergy (VLoewe>1: synergy) | No Effect | Additivity (between 1 and −1: additivity) | No Effect | No Effect | No Effect | No Effect | No Effect | Synergy (VLoewe>1: synergy) | No Effect | No Effect | Additivity (between 1 and −1: additivity) | Combination effect (Loewe Volume) WSUDLCL2 (WSUDLCL2): Additivity (between 1 and −1: additivity); Combination effect (Loewe Volume) WSUNHL (WSUNHL): No Effect; Combination effect (Loewe Volume) Z138 (Z138): No Effect; Combination effect with Cpd. No. 15 (Loewe Volume class), Ri1 [1]: Synergy (VLoewe>1: synergy); Combination effect with Cpd. No. 15 (Loewe Volume class), TMD8 [1]: Synergy (VLoewe>1: synergy); Combination effect with Cpd. No. 15 (Loewe Volume class), WILL1 [1]: No Effect; Combination effect with Cpd. No. 15 (Loewe Volume class), Farage [2]: Synergy (VLoewe>1: synergy); Combination effect with Cpd. No. 15 (Loewe Volume class), HT [2]: No Effect; Combination effect with Cpd. No. 15 (Loewe Volume class), OCILY7 [2]: No Effect; Combination effect with Cpd. No. 15 (Loewe Volume class), SUDHL4 [2]: No Effect; Combination effect with Cpd. No. 15 (Loewe Volume class), WILL2 ([2]; cell line WILL2 (Cat. No. ACC 652)): No Effect |
| C=CC(=O)N1CCC([C@@H]2CCNc3c(C(N)=O)c(-c4ccc(Oc5ccccc5)cc4)nn32)CC1 [Zanubrutinib, zanubrutinib] | No Effect | Synergy (VLoewe>1: synergy) | Additivity (between 1 and −1: additivity) | No Effect | Synergy (VLoewe>1: synergy) | Additivity (between 1 and −1: additivity) | No Effect | Synergy (VLoewe>1: synergy) | Synergy (VLoewe>1: synergy) | No Effect | Additivity (between 1 and −1: additivity) | No Effect | No Effect | No Effect | Synergy (VLoewe>1: synergy) | No Effect | Synergy (VLoewe>1: synergy) | No Effect | Additivity (between 1 and −1: additivity) | Additivity (between 1 and −1: additivity) | Combination effect (Loewe Volume) WSUDLCL2 (WSUDLCL2): Additivity (between 1 and −1: additivity); Combination effect (Loewe Volume) WSUNHL (WSUNHL): Additivity (between 1 and −1: additivity); Combination effect (Loewe Volume) Z138 (Z138): No Effect; Combination effect with Cpd. No. 15 (Loewe Volume class), Ri1 [1]: Synergy (VLoewe>1: synergy); Combination effect with Cpd. No. 15 (Loewe Volume class), TMD8 [1]: Synergy (VLoewe>1: synergy); Combination effect with Cpd. No. 15 (Loewe Volume class), WILL1 [1]: No Effect; Combination effect with Cpd. No. 15 (Loewe Volume class), Farage [2]: Synergy (VLoewe>1: synergy); Combination effect with Cpd. No. 15 (Loewe Volume class), HT [2]: Synergy (VLoewe>1: synergy); Combination effect with Cpd. No. 15 (Loewe Volume class), OCILY7 [2]: Synergy (VLoewe>1: synergy); Combination effect with Cpd. No. 15 (Loewe Volume class), SUDHL4 [2]: Synergy (VLoewe>1: synergy) |
